Results taken from patent US20080077999A1, “Using Nonhuman Animal Model, Method of Measuring Transcription Activity Method of Measuring Cell Quantity and Method of Measuring Tumor Volume” (Eisai R&D Management Co., Ltd., priority 2004, published 2008).

How the values were obtained:
[1] = test system: transcriptional activity through STAT6 activation by IL4 stimulation; settings: in vitro; cited from earlier work
[2] = test system: transcriptional activity through STAT6 activation by IL4 stimulation; test: Test of inhibitory action in mouse air pouch model introduced with E9 cells (blood PLAP activity after IL4 stimulation); assay type: in vivo, CDF1 mouse; settings: orally administered 20 mg/kg, 1 hour before IL4 injection into air pouch; plasma 24 hours after IL4
Experimental: 5% cytodex3 (Amersham Bioscience, 17-0485-01) solution and 2% CMC solution (Daiichi Kogyo Seiyaku Co., Ltd.) were prepared. More specifically, 5 g of cytodex3 was suspended in 100 ml of PBS (SIGMA, R8537) and sterilized by autoclaving. On the other hand, the 2% CMC solution was prepared by adding 2 g of CMC in 100 ml of PBS while stirring with a stirrer bar and followed by sterilization by autoclaving.
Then, E9 cells were subjected to trypsin-EDTA treatment to be removed from the wall of the vessel and the cells were suspended in DMEM to make 1.0×10^6 cells/ml. 0.2 g of cytodex3 was mixed with 1.0×10^7 cells/ml of E9 cells. More specifically, 4 ml of 5% cytodex3 solution was mixed with 10 ml of 1.0×10^6 cells/ml of cell suspension. Then, the cell/cytodex3 suspension was inoculated on a non-tissue culture plate (IWAKI, SH90-15) and cultured in a CO2 incubator. […]
After 24 hours, orbital blood drawing was conducted using a heparin-treated Terumo hematocrit capillary tube (TERUMO Corporation, VC-H075H). […] To inactivate endogenous alkaline phosphatase, the plasma sample was treated in a hot water bath at 65° C. for 10 minutes and then PLAP activity derived from E9 cells in the plasma was measured. […] Subsequently, while shielding light, the mixture was incubated at room temperature for 1 hour, followed by measurement of intensity of chemiluminescence using a plate reader (Perkin Elmer, ARVO).

[3] = test system: E9 cell (HEK293 with STAT6-PLAP reporter plasmid and STAT6-expression vector plasmid); test: PLAP activity in culture supernatant of cells stably expressing STAT6-PLAP reporter plasmid and STAT6 expression vector plasmid upon human IL4 stimulation; assay type: cell-based; settings: human IL4 final concentration 1 ng/ml, next day
Experimental: More specifically, the cloned cell was subjected to trypsin-EDTA treatment to be removed from the wall of the vessel and suspended in DMEM and cells were inoculated on a 96-well cell culture plate to be 1.0×10^4 cells/190 μl/well. On the next day, 10 μl of 20 ng/ml human IL4 (Calbiochem, 407635) was added to the culture medium at a final concentration of 1 ng/ml. On the next day, the culture supernatant was recovered and the PLAP activity in the culture supernatant was measured.
More specifically, 100 μl of PLAP buffer (0.28 M Na2CO3—NaHCO3 pH 10.0, 8 mM MgSO4) was added to a black plate for ELISA (Sumitomo Bakelite Co., Ltd., No. MS-8496K), and 10 μl of the culture supernatant which had been treated in a hot water bath at 65° C. for 10 minutes was added thereto. Then, 50 μl of Lumi-Phos 530 (Lumigen, Inc.) was added, followed by mixing. Subsequently, while shielding light, the mixture was incubated at room temperature for 1 hour, followed by measurement of intensity of chemiluminescence using a plate reader (Perkin Elmer, ARVO). […] Hereinafter, this clone is named E9 cell.

[4] = test system: E9 cells (STAT6-PLAP reporter); test: Mouse air pouch model introduced with E9 cells: plasma PLAP activity upon human IL4 stimulation; assay type: in vivo, CDF1 mouse; settings: 1 ml of 3 ng/ml human IL4 injected into air pouch, plasma after 24 hours
Experimental: 5% cytodex3 (Amersham Bioscience, 17-0485-01) solution and 2% carboxymethylcellulose (hereinafter, also referred to as CMC) solution (Daiichi Kogyo Seiyaku Co., Ltd.) were prepared. More specifically, 5 g of cytodex3 was suspended in 100 ml of PBS (SIGMA, R8537) and sterilized in an autoclave. On the other hand, the 2% CMC solution was prepared by adding 2 g of CMC in 100 ml of PBS while stirring with a stirrer bar, followed by sterilization in the autoclave.
Then, the E9 cells were subjected to trypsin-EDTA treatment to be removed from the wall of the vessel and the cells were suspended in DMEM to be 1.0×10^6 cells/ml. 0.2 g of cytodex3 was mixed with 1.0×10^7 cells/ml E9 cells. More specifically, 4 ml of 5% cytodex3 solution was added to 10 ml of 1.0×10^6 cells/ml cell suspension. […]
Under anesthesia with diethyl ether (WAKO, 055-01155), 3 ml of air was introduced under the skin on the back of a CDF1 mouse (Charles River Japan) using a 5-ml syringe with a 27 G needle to make an air pouch. […] To inactivate endogenous alkaline phosphatases, the plasma sample was treated in a hot water bath at 65° C. for 10 minutes and then the PLAP activity derived from E9 cells in the plasma was measured. […] Subsequently, while shielding light, the mixture was incubated at room temperature for 1 hour, followed by measurement of intensity of chemiluminescence using a plate reader (Perkin Elmer, ARVO).

Molecule: Cl.Cl.Cl.Fc1ccc(-c2n[nH]cc2-c2ccc3ncc(-c4nccs4)n3c2)cc1 [test compound, 2-(6-[3-(4-fluorophenyl)-1H-4-pyrazolyl]imidazo[1,2-a]pyridin-3-yl)-1,3-thiazole trihydrochloride]
- inhibition of transcriptional activity through STAT6 activation by IL4 stimulation [1]: inhibit transcriptional activity through STAT6 activation
- suppression of the PLAP activity activated by the IL4 stimulation as compared with the control group [2]: 94.1%

B1: IL4: human IL4 (Calbiochem, 407635), used as stimulus of STAT6-PLAP reporter cells (protein, UniProt P05112 25-153, looked up)
Interleukin-4: HKCDITLQEIIKTLNSLTEQKTLCTELTVTDIFAASKNTTEKETFCRAATVLRQFYSHHEKDTRCLGATAQQFHRHKQLIRFLKRLDRNLWGLAGLNSCPVKEANQSTLENFLERLKTIMREKYSKCSS
- PLAP activity in culture supernatant upon IL4 stimulation compared to non-stimulating condition [3]: higher PLAP activity was induced
- PLAP activity secreted in blood upon IL4 stimulation [4]: remarkable increase of PLAP activity
